25 compounds from US9187472B2 (AbbVie Inc., priority 2012, dated 2015) can be followed below.

Each structure is given as a SMILES string.

For one test, the system named is PC3 cells. Nature of the test: NAMPT Cell Proliferation Assay. The test is classed as cell-based. As to conditions: Homo sapiens, PC-3, 120 h, 5 days incubation, cell viability by Cell Titer Glo. In a few lines: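 Proliferation of PC3 cells treated 5 days with a 10-fold compound series (top 10 μM) was quantified by Cell Titer Glo luminescence; IC50s were fitted from percent inhibition.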
For orientation: In ATP-based viability assays light output follows the ATP content of the culture.

In another test the target is NAMPT (Homo sapiens, UniProt P43490). Put plainly: TR-FRET Binding Assay of NAMPT with PRPP. The following applies: with 200 μM PRPP and 2.5 mM ATP; 2 nM NAMPT, 2 nM probe, 16 hours equilibration. The method in brief: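 Substrate-containing variant: 200 μM PRPP plus 2.5 mM ATP are added to 2 nM NAMPT and 2 nM probe, with a 16-hour incubation ahead of TR-FRET reading.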
In general terms: TR-FRET usually uses a lanthanide donor and a delayed reading to cut background.

The target in test [1] is NAMPT (human, recombinant, C-terminally His-tagged) (Homo sapiens, UniProt P43490). Put plainly: Time-Resolved Fluorescence Resonance Energy Transfer (TR-FRET) Binding Assay of NAMPT. The following applies: without substrates; 6.8 nM NAMPT, 200 nM probe, 3 hours equilibration. The method in brief: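 In a displacement format, the nicotinamide-site tracer at 200 nM competed with test compound for 6.8 nM enzyme detected via 1 nM terbium anti-His antibody; incubation lasted 3 hours at room temperature in 50 mM HEPES pH 7.5, 100 mM NaCl. Normalized 520/495 nm emission ratios gave IC50 values.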
NAMPT (human, recombinant, C-terminally His-tagged), sequence (P43490 whole entry): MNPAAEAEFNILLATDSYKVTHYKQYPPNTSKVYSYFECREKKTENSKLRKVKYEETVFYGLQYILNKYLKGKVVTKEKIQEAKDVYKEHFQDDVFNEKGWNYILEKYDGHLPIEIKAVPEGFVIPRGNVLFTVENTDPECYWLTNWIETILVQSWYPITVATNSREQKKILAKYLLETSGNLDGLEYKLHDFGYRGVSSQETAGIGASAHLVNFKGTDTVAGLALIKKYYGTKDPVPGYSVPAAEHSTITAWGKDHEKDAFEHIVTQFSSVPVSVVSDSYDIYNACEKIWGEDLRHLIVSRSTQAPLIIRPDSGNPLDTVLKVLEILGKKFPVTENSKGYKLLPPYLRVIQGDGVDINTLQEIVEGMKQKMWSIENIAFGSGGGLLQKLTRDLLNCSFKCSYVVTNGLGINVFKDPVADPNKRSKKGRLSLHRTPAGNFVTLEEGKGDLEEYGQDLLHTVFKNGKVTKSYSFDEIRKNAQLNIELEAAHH

NAMPT, sequence (P43490 whole entry): as above

Broadly, the IC50 is the concentration needed to halve the response being measured. In the case of `CS(=O)(=O)N1CCC(c2ccc(C(=O)NCc3ccn4ccnc4c3)cc2)C1` (stereo not drawn) [Example 624, N-(imidazo[1,2-a]pyridin-7-ylmethyl)-4-[1-(methylsulfonyl)pyrrolidin-3-yl]benzamide], the values for the IC50 (with PC3 cells; at NAMPT; in test [1]) were 329 nM, 0.627 nM and 261 nM, respectively.

In the case of `Cn1cccc1C(=O)N1CC(c2ccc(C(=O)NCc3ccn4ccnc4c3)cc2)C1` [Example 656, N-(imidazo[1,2-a]pyridin-7-ylmethyl)-4-{1-[(1-methyl-1H-pyrrol-2-yl)carbonyl]azetidin-3-yl}benzamide], the half-maximal inhibitory concentration (IC50) with PC3 cells amounted to 38.5 nM; at NAMPT, 0.738 nM; in test [1], 218 nM.

For the compound `CCCC(=O)N1CCC(c2ccc(NC(=O)NCc3ccn4ccnc4c3)cc2)CC1` [Example 709, 1-[4-(1-butanoylpiperidin-4-yl)phenyl]-3-(imidazo[1,2-a]pyridin-7-ylmethyl)urea], the IC50 is 3.36 nM in the test on PC3 cells, 0.473 nM at NAMPT and 19.4 nM in test [1].

With `CC(C)CCNC(=O)c1ccc(NC(=O)Nc2ccc3nccn3c2)cc1` [Example 1, 4-[(imidazo[1,2-a]pyridin-6-ylcarbamoyl)amino]-N-(3-methylbutyl)benzamide], the IC50 with PC3 cells is 60.9 nM; on NAMPT, 0.72 nM; in test [1], 92.1 nM.

Take `O=C(NCc1ccc2nccn2c1)c1cnc(N(C[C@@H]2CCCO2)C(=O)C2CCOCC2)s1` [Example 150, N-(imidazo[1,2-a]pyridin-6-ylmethyl)-2-{[(2S)-tetrahydrofuran-2-ylmethyl](tetrahydro-2H-pyran-4-ylcarbonyl)amino}-1,3-thiazole-5-carboxamide]: the values for the IC50 (with PC3 cells; on NAMPT; in test [1]) were 36.2 nM, 3.49 nM and 6110 nM, respectively.

Consider `O=C(NCc1ccc2nccn2c1)c1cnc(N(CC2CCCO2)C(=O)CCc2ccno2)s1` (stereo not drawn) [Example 133, N-(imidazo[1,2-a]pyridin-6-ylmethyl)-2-{[3-(1,2-oxazol-5-yl)propanoyl](tetrahydrofuran-2-ylmethyl)amino}-1,3-thiazole-5-carboxamide], for which the IC50 in the test with PC3 cells worked out at 2.16 nM; on NAMPT it was 0.709 nM; in test [1] it was 67 nM.

Turning to `Cc1ncsc1CCC(=O)N(CC1CCCO1)c1ncc(C(=O)NCc2ccc3nccn3c2)s1` (stereo not drawn) [Example 131, N-(imidazo[1,2-a]pyridin-6-ylmethyl)-2-{[3-(4-methyl-1,3-thiazol-5-yl)propanoyl](tetrahydrofuran-2-ylmethyl)amino}-1,3-thiazole-5-carboxamide], the IC50 in the test on PC3 cells turned out to be 2.17 nM; on NAMPT it was 1.67 nM; in test [1], 15.2 nM.

Turning to `O=C(Nc1ccc(C(=O)NCCCN2CCCCC2)cc1)Nc1ccc2nccn2c1` [Example 9, 4-[(imidazo[1,2-a]pyridin-6-ylcarbamoyl)amino]-N-[3-(piperidin-1-yl)propyl]benzamide], the IC50 in the test with PC3 cells amounted to 649 nM; on NAMPT, 0.459 nM; in test [1], 1720 nM.

As to `CC(C)OCC(=O)Nc1ccc(NC(=O)NCc2ccn3ccnc3c2)cc1` [Example 282, N-(4-{[(imidazo[1,2-a]pyridin-7-ylmethyl)carbamoyl]amino}phenyl)-2-(propan-2-yloxy)acetamide], the figures for the IC50 (in the test on PC3 cells; on NAMPT; in test [1]) were 44.7 nM, 0.297 nM and 76.5 nM, respectively.

Take `CC(C)(C)OC(=O)N1CCC(c2ccc(C(=O)NCc3ccn4ccnc4c3)cc2)C1` (stereo not drawn) [Example 301, tert-butyl 3-{4-[(imidazo[1,2-a]pyridin-7-ylmethyl)carbamoyl]phenyl}pyrrolidine-1-carboxylate]: the IC50 in the test with PC3 cells turned out to be 25.8 nM; on NAMPT, 0.301 nM; in test [1], 288 nM.

Consider `CC(C)Cn1cc(-c2ccc(C(=O)NCc3cn4ccnc4cn3)o2)cn1` [Example 819, N-(imidazo[1,2-a]pyrazin-6-ylmethyl)-5-[1-(2-methylpropyl)-1H-pyrazol-4-yl]furan-2-carboxamide], for which the IC50 is 13 nM in the test on PC3 cells, 0.624 nM on NAMPT and 19.9 nM in test [1].

Consider `Cn1cc(CCC(=O)N(C[C@H]2CCCO2)c2ncc(C(=O)NCc3ccn4ccnc4c3)s2)cn1` [Example 198, N-(imidazo[1,2-a]pyridin-7-ylmethyl)-2-{[3-(1-methyl-1H-pyrazol-4-yl)propanoyl][(2R)-tetrahydrofuran-2-ylmethyl]amino}-1,3-thiazole-5-carboxamide], for which the IC50 in the test on PC3 cells turned out to be 1.84 nM; on NAMPT it was 0.225 nM; in test [1] it was 32.5 nM.

In the case of `O=C(NCc1ccn2ccnc2c1)c1ccc(C2CCN(C(=O)C(F)(F)c3ccccc3)C2)cc1` (stereo not drawn) [Example 733, 4-{1-[difluoro(phenyl)acetyl]pyrrolidin-3-yl}-N-(imidazo[1,2-a]pyridin-7-ylmethyl)benzamide], the IC50 came out at 20.2 nM in the test with PC3 cells, 0.712 nM on NAMPT and 119 nM in test [1].

On to `O=C(NCc1ccn2ccnc2c1)c1ccc(C2CN(C(=O)CC3CCOCC3)C2)cc1` [Example 551, N-(imidazo[1,2-a]pyridin-7-ylmethyl)-4-[1-(tetrahydro-2H-pyran-4-ylacetyl)azetidin-3-yl]benzamide], for which the 50% inhibitory concentration (IC50) worked out at 55.1 nM with PC3 cells, 0.392 nM on NAMPT and 713 nM in test [1].

Take `O=C(NCc1ccc2nccn2c1)c1ccc(C2=CCN(C(=O)CC3CCOC3)CC2)cc1` (stereo not drawn) [Example 94, N-(imidazo[1,2-a]pyridin-6-ylmethyl)-4-[1-(tetrahydrofuran-3-ylacetyl)-1,2,3,6-tetrahydropyridin-4-yl]benzamide]: the IC50 in the test on PC3 cells was 14.2 nM; at NAMPT, 0.593 nM; in test [1] it was 290 nM.

As for `O=C(NCc1ccn2ccnc2c1)Nc1ccc(OC2CN(C(=O)c3ccccc3)C2)cc1` [Example 428, 1-{4-[(1-benzoylazetidin-3-yl)oxy]phenyl}-3-(imidazo[1,2-a]pyridin-7-ylmethyl)urea], the IC50 in the test on PC3 cells amounted to 67.5 nM; at NAMPT it was 0.258 nM; in test [1], 87.1 nM.

On to `O=C(NCc1ccn2ccnc2c1)c1ccc(C2CCN(S(=O)(=O)c3ccccc3)CC2)cc1` [Example 682, N-(imidazo[1,2-a]pyridin-7-ylmethyl)-4-[1-(phenylsulfonyl)piperidin-4-yl]benzamide], for which the IC50 in the test on PC3 cells was 771 nM; on NAMPT it was 1.58 nM; in test [1] it was 607 nM.

With `O=C(NCc1ccn2ccnc2c1)Nc1ccc(OC2CCN(C(=O)CC3CCOCC3)CC2)cc1` [Example 451, 1-(imidazo[1,2-a]pyridin-7-ylmethyl)-3-(4-{[1-(tetrahydro-2H-pyran-4-ylacetyl)piperidin-4-yl]oxy}phenyl)urea], the IC50 in the test on PC3 cells was determined as 17.3 nM; on NAMPT, 0.373 nM; in test [1], 400 nM.

Regarding `O=C(NCc1ccn2ccnc2c1)Nc1ccc(O[C@@H]2CCN(C(=O)c3ccccc3)C2)cc1` [Example 329, 1-(4-{[(3R)-1-benzoylpyrrolidin-3-yl]oxy}phenyl)-3-(imidazo[1,2-a]pyridin-7-ylmethyl)urea], the IC50 is 12.4 nM with PC3 cells, 0.169 nM on NAMPT and 30.8 nM in test [1].

For `CC(=O)N1CCC(c2ccc(C(=O)NCc3ccn4ccnc4c3)cc2)CC1` [Example 313, 4-(1-acetylpiperidin-4-yl)-N-(imidazo[1,2-a]pyridin-7-ylmethyl)benzamide], the results for the 50% inhibitory concentration (IC50) (in the test with PC3 cells; at NAMPT; in test [1]) were 820 nM, 0.36 nM and 531 nM, respectively.

`COCCC(=O)N(CC1CCOC1)c1ncc(C(=O)NCc2ccc3nccn3c2)s1` (stereo not drawn) [Example 139, N-(imidazo[1,2-a]pyridin-6-ylmethyl)-2-[(3-methoxypropanoyl)(tetrahydrofuran-3-ylmethyl)amino]-1,3-thiazole-5-carboxamide]: the results for the IC50 (in the test on PC3 cells; on NAMPT; in test [1]) were 12.2 nM, 0.173 nM and 582 nM, respectively.

For the compound `CC(C)CCNC(=O)c1cnc(NC(=O)NCc2ccn3ccnc3c2)s1` [Example 407, 2-{[(imidazo[1,2-a]pyridin-7-ylmethyl)carbamoyl]amino}-N-(3-methylbutyl)-1,3-thiazole-5-carboxamide], the results for the IC50 (with PC3 cells; at NAMPT; in test [1]) were 1310 nM, 0.659 nM and 220 nM, respectively.

`O=C(NCc1ccn2ccnc2c1)c1ccc(C2CCN(C(=O)CC3CC3)C2)cc1` (stereo not drawn) [Example 369, 4-[1-(cyclopropylacetyl)pyrrolidin-3-yl]-N-(imidazo[1,2-a]pyridin-7-ylmethyl)benzamide]: the IC50 turned out to be 738 nM with PC3 cells, 0.337 nM at NAMPT and 429 nM in test [1].

On to `O=C(NCc1ccn2ccnc2c1)c1cnc(C2CCN(C(=O)c3ccccc3F)CC2)s1` [Example 802, 2-[1-(2-fluorobenzoyl)piperidin-4-yl]-N-(imidazo[1,2-a]pyridin-7-ylmethyl)-1,3-thiazole-5-carboxamide], for which the results for the IC50 (in the test with PC3 cells; at NAMPT; in test [1]) were 5.83 nM, 0.533 nM and 35.9 nM, respectively.

With `CC(C)C(=O)NC1(c2ccc(C(=O)NCc3ccn4ccnc4c3)s2)COC1` [Example 324, N-(imidazo[1,2-a]pyridin-7-ylmethyl)-5-{3-[(2-methylpropanoyl)amino]oxetan-3-yl}thiophene-2-carboxamide], the IC50 in the test on PC3 cells was 54.7 nM; at NAMPT, 0.752 nM; in test [1], 981 nM.
